Assay results as given in patent US10000451B2, “MAP4K4 (HGK) inhibitors” (SRI INTERNATIONAL, priority 2015, dated 2018).
Where two headings read alike, the source gives them in different places. Values belong to the compound of their own block, whether it stands above or below them.

Columns and labels:
A498 = assay: Activity against cancer cell lines; assay type: cell-based; conditions: Homo sapiens
Description: (§1) Exemplary data is shown below.

ACHN = assay: Activity against cancer cell lines; assay type: cell-based; conditions: Homo sapiens
Description: as §1

ADRRES = assay: Activity against cancer cell lines; assay type: cell-based
Description: as §1

CAKI1 = assay: Activity against cancer cell lines; assay type: cell-based; conditions: Homo sapiens, CAKI-1
Description: as §1

CCRFCEM = assay: Activity against cancer cell lines; assay type: cell-based
Description: as §1

HCT15 = assay: Activity against cancer cell lines; assay type: cell-based; conditions: Homo sapiens, HCT-15
Description: as §1

HL60 = assay: Activity against cancer cell lines; assay type: cell-based
Description: as §1

LOXIMVI = assay: Activity against cancer cell lines; assay type: cell-based; conditions: Homo sapiens, LOX IMVI
Description: as §1

M14 = assay: Activity against cancer cell lines; assay type: cell-based; conditions: Homo sapiens
Description: as §1

MCF7 = assay: Activity against cancer cell lines; assay type: cell-based; conditions: Homo sapiens
Description: as §1

MDAMB435 = assay: Activity against cancer cell lines; assay type: cell-based; conditions: Homo sapiens, MDA-MB-435
Description: as §1

MOLT4 = assay: Activity against cancer cell lines; assay type: cell-based; conditions: Homo sapiens, MOLT-4
Description: as §1

NCIH522 = assay: Activity against cancer cell lines; assay type: cell-based; conditions: Homo sapiens, NCI-H522
Description: as §1

OVCAR4 = assay: Activity against cancer cell lines; assay type: cell-based
Description: as §1

RXF393 = assay: Activity against cancer cell lines; assay type: cell-based; conditions: Homo sapiens, RXF 393
Description: as §1

SF295 = assay: Activity against cancer cell lines; assay type: cell-based; conditions: Homo sapiens, SF-295
Description: as §1

SF539 = assay: Activity against cancer cell lines; assay type: cell-based; conditions: Homo sapiens, SF-539
Description: as §1

SKMEL2 = assay: Activity against cancer cell lines; assay type: cell-based; conditions: Homo sapiens, SK-MEL-2
Description: as §1

SKMEL5 = assay: Activity against cancer cell lines; assay type: cell-based; conditions: Homo sapiens, SK-MEL-5
Description: as §1

SNB75 = assay: Activity against cancer cell lines; assay type: cell-based
Description: as §1

UO31 = assay: Activity against cancer cell lines; assay type: cell-based; conditions: Homo sapiens, UO-31
Description: as §1

MAP4K4 = MAP4K4 (Homo sapiens, UniProt O95819); assay: MAP4K4 kinase assay (in-house); assay type: biochemical
Chain of MAP4K4 (O95819 whole entry): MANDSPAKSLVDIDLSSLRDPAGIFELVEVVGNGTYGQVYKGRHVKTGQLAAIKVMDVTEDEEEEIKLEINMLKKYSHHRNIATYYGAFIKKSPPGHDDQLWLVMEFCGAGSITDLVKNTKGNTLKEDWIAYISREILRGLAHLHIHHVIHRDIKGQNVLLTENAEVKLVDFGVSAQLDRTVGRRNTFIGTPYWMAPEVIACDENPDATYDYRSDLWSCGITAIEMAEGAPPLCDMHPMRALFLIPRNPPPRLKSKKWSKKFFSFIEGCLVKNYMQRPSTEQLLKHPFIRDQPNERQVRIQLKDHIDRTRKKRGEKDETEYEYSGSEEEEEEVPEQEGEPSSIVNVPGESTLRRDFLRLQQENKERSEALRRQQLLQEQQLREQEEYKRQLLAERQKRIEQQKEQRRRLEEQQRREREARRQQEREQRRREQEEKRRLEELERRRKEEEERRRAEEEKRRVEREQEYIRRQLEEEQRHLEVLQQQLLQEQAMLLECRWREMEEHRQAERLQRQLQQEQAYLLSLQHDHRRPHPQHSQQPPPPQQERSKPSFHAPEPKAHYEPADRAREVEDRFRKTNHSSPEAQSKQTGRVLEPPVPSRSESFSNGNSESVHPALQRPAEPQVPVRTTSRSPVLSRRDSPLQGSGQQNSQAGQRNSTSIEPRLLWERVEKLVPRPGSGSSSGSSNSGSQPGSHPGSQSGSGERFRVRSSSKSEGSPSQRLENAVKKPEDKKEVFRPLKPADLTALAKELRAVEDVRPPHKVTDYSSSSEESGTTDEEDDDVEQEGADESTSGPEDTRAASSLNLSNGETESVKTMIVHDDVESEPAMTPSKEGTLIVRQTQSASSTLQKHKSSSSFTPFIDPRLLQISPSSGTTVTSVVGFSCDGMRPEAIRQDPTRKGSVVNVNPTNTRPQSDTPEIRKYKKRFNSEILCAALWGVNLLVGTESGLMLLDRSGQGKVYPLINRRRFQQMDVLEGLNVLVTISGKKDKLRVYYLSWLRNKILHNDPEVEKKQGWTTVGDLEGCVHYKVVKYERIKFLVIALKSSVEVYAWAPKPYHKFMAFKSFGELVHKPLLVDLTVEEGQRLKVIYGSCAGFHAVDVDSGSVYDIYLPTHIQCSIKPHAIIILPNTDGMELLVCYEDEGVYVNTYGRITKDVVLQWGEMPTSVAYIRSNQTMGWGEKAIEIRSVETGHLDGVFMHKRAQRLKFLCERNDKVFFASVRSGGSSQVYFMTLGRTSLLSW
Description: Signaling pathways mediating anticancer activity. […] We established the MAP4K4 kinase assay in-house and confirmed that the compounds are indeed potent MAP4K4 inhibitors.

OVCAR8 = assay: Activity against cancer cell lines; assay type: cell-based
Description: as §1

BT549 = assay: Breast cancer cell line growth inhibition; assay type: cell-based; conditions: Homo sapiens, BT-549; BT549, triple negative; read-out: IC50 against breast cancer cell lines
Description: (§2) Generally, their potency is positively correlated with MAP4K4 expression in cancer cell lines.

HS578T = assay: Breast cancer cell line growth inhibition; assay type: cell-based; conditions: Homo sapiens, Hs-578T, triple negative, read-out: IC50 against breast cancer cell lines
Description: as §2

MCF-7 = assay: Breast cancer cell line growth inhibition; assay type: cell-based; conditions: Homo sapiens, MCF7; MCF-7, ER (+); read-out: IC50 against breast cancer cell lines
Description: as §2

MDA-MB-231 = assay: Breast cancer cell line growth inhibition; assay type: cell-based; conditions: Homo sapiens; MDA-MB-231, triple negative; read-out: IC50 against breast cancer cell lines
Description: as §2

T47D = assay: Breast cancer cell line growth inhibition; assay type: cell-based; conditions: Homo sapiens, ER (+), read-out: IC50 against breast cancer cell lines
Description: as §2

DU-145 = assay: Prostate cancer cell proliferation assay; assay type: cell-based; conditions: Homo sapiens; DU-145, 72 hours; read-out: IC50 against prostate cancer cell lines
Description: (§3) The dose-response curves of cell growth inhibition were consistent.
(§4) Cell proliferation assays.

LNCaP = assay: Prostate cancer cell proliferation assay; assay type: cell-based; conditions: Homo sapiens, 72 hours, read-out: IC50 against prostate cancer cell lines
Description: as §3, §4

PC-3 = assay: Prostate cancer cell proliferation assay; assay type: cell-based; conditions: Homo sapiens; PC-3, 72 hours; read-out: IC50 against prostate cancer cell lines
Description: as §3, §4

[1] = In vivo pharmacokinetic study, oral formulations; conditions: mouse, plasma, 60 mg/kg, mice
Description: In vivo pharmacokinetic (PK) studies; oral bioavailability. We conducted pre-formulation studies and selected different oral formulations for mice PK studies to explore the effect of formulation on drug absorption.
The PK profiles of representative compounds (60 mg/kg) were determined in different oral formulations (HPC and PTTW) with groups of three mice per time point.

[2] = Metabolic stability in liver microsomes; assay type: in vitro ADME; conditions: NADPH, 10 μM
Description: The compounds are experimentally predicted to have a longer half-life in humans. We conducted metabolic stability studies in human and mouse liver microsomes. Metabolic stability in pooled human or mouse liver microsomes, in the presence of NADPH, was measured with 10 μM compound over 60 min.

[3] = test system: caspase-3 and -7 activities; assay: Caspase-Glo 3/7 apoptosis assay; assay type: cell-based; conditions: 20 nM
Description: Efficacy-related endpoints. We conducted an in-depth mechanism of action study in androgen-sensitive (LNCaP) and -insensitive (PC-3 and DU-145) prostate cancer cell lines.
Apoptosis assay. The Caspase-Glo® 3/7 Assay (Promega), a homogeneous, luminescent assay that measures caspase-3 and -7 activities, was used to access apoptosis induction.

- IC50 (A498): 650 nM
- IC50 (ACHN): 540 nM
- IC50 (ADRRES): 11000 nM
- IC50 (CAKI1): 180 nM
- IC50 (CCRFCEM): 87 nM
- IC50 (CCRFCEM; Homo sapiens, CCRF-CEM): 47 nM
- IC50 (HCT15): 1300 nM
- IC50 (HL60; HL60): 130 nM
- IC50 (HL60; Homo sapiens, HL-60, HL60): 150 nM
- IC50 (LOXIMVI): 260 nM
- IC50 (M14): 810 nM
- IC50 (MCF7): 410 nM
- IC50 (MDAMB435): 970 nM
- IC50 (MOLT4): 75 nM
- IC50 (NCIH522): 500 nM
- IC50 (OVCAR4; Homo sapiens, OVCAR-4, OVCAR4): 1900 nM
- IC50 (OVCAR4; OVCAR4): 1500 nM
- IC50 (RXF393): 1000 nM
- IC50 (SF295): 430 nM
- IC50 (SF539): 390 nM
- IC50 (SKMEL2): 680 nM
- IC50 (SKMEL5): 390 nM
- IC50 (SNB75; Homo sapiens, SNB-75, SNB75): 610 nM
- IC50 (SNB75; SNB75): 580 nM
- IC50 (UO31): 2500 nM
SMILES: COc1cccc2c1C(=O)c1c(O)c3c(c(O)c1C2=O)C[C@@](O)(C(=O)CO)C[C@@H]3O[C@H]1C[C@H](N)[C@H](O)[C@H](C)O1 [Doxorubicin, reference compound]

- IC50 (MAP4K4): 160 nM
- IC50 (A498): 52 nM
- IC50 (ACHN): 5.7 nM
- IC50 (ADRRES): 27 nM
- IC50 (CAKI1): 23 nM
- IC50 (HCT15): 27 nM
- IC50 (HL60; HL60): 24 nM
- IC50 (HL60; Homo sapiens, HL-60, HL60): 35 nM
- IC50 (LOXIMVI): 14 nM
- IC50 (M14): 38 nM
- IC50 (MCF7): 59 nM
- IC50 (MDAMB435): 21 nM
- IC50 (MOLT4): 53 nM
- IC50 (NCIH522): 32 nM
- IC50 (OVCAR4; Homo sapiens, OVCAR-4, OVCAR4): 90 nM
- IC50 (OVCAR4; OVCAR4): 56 nM
- IC50 (OVCAR8; Homo sapiens, OVCAR-8, OVCAR8): 67 nM
- IC50 (OVCAR8; OVCAR8): 53 nM
- IC50 (RXF393): 38 nM
- IC50 (SF295): 54 nM
- IC50 (SF539): 39 nM
- IC50 (SKMEL2): 63 nM
- IC50 (SKMEL5): 33 nM
- IC50 (SNB75; Homo sapiens, SNB-75, SNB75): 42 nM
- IC50 (SNB75; SNB75): 34 nM
- IC50 (UO31): 66 nM
SMILES: COc1ccc2[nH]c(C(=O)c3ccc4[nH]ccc4c3)cc2c1 [Cmpd 1, (1H-indol-5-yl)(5-methoxy-1H-indol-2-yl)methanone]

- IC50 (MAP4K4): 140 nM
- IC50 (BT549): 12 nM
- IC50 (HS578T): 13 nM
- IC50 (MCF-7): 83 nM
- IC50 (MDA-MB-231): 14 nM
- IC50 (T47D): 29 nM
- IC50 (DU-145): 23 nM
- IC50 (LNCaP): 16 nM
- IC50 (PC-3): 11 nM
- concentration at 0.5 h ([1]; oral 60 mg/kg in 0.5% HPC): 319 ± 106 ng/mL
- concentration at 4 h ([1]; oral 60 mg/kg in 0.5% HPC): 33 ± 21 ng/mL
- concentration at 8 h ([1]; oral 60 mg/kg in 0.5% HPC): 34.7 ± 18.8 ng/mL
- concentration at 24 h ([1]; oral 60 mg/kg in 0.5% HPC): 1.3 ± 2.3 ng/mL
- concentration at 0.5 h ([1]; oral 60 mg/kg in PTTW): 798 ± 204 ng/mL
- concentration at 4 h ([1]; oral 60 mg/kg in PTTW): 75.5 ± 19.3 ng/mL
- concentration at 8 h ([1]; oral 60 mg/kg in PTTW): 21.7 ± 11.1 ng/mL
- concentration at 24 h ([1]; oral 60 mg/kg in PTTW): 15.4 ± 7.2 ng/mL
- % of Parent Compound Remaining vs T = 0 min ([2]; human liver microsomes, 15 min): 72.9%
- % of Parent Compound Remaining vs T = 0 min ([2]; human liver microsomes, 30 min): 63.1%
- % of Parent Compound Remaining vs T = 0 min ([2]; human liver microsomes, 60 min): 53.0%
- % of Parent Compound Remaining vs T = 0 min ([2]; mouse liver microsomes, 15 min): 31.6%
- % of Parent Compound Remaining vs T = 0 min ([2]; mouse liver microsomes, 30 min): 9.9%
- % of Parent Compound Remaining vs T = 0 min ([2]; mouse liver microsomes, 60 min): 1.0%
SMILES: COc1ccc2[nH]c(C(=O)c3ccc4[nH]nc(C)c4c3)cc2c1 [Cmpd 18, (5-methoxy-1H-indol-2-yl)(3-methyl-1H-indazol-5-yl)methanone]
- apoptosis induction ([3]; 24 hours treatment): significantly induced apoptosis
- apoptosis induction ([3]; 48 hours treatment): more profound apoptotic effect
